Measurements reported in US6281342A, “Pradimicin compounds” (Bristol-Myers Squibb Company, priority 1994, dated 2001).
In brackets after ≈: the same amount, converted by molar mass. Read-outs that look alike come from different tables or passages of the source.

Legend:
[1] = system: Trichophyton mentagrophytes #4329; assay: MIC, two-fold agar dilution, T. mentagrophytes #4329; assay type: cell-based
Procedure: (§1) Minimum inhibitory concentrations (MICs) of nine 4'-N-substituted pradimicin derivatives were determined by two-fold agar dilution method on phosphate-buffered yeast morphology agar (YMA, pH 7.0, Difco Laboratories). A 5-μl of fungal cell suspension containing 2×10^6 cells/ml (2×10^7 cells/ml for Trichophyton mentagrophytes) were spotted on the surface of the agar plates containing test compound. MICs were recorded after 40-hour incubation at 28° C. except for T. mentagrophytes, which required 60-hour incubation to produce visually evaluable growth on the drug-free control plates and were defined as the lowest antibiotic concentrations showing no growth or less than five discrete colonies per spot.
(§2) Medium: yeast morphology agar + 1/15 M phosphate buffer (pH 7.0)
(§3) Incubation conditions: 28° C., 40 hours (C. albicans ATCC 38247 & T.
(§4) mentagrophytes #4329: 28° C., 60 hours).
(§5) Medium: Yeast morphology agar + 1/15 phosphate buffer (pH 7.0).

Candida albicans A9540 [2] = assay: MIC, two-fold agar dilution, C. albicans A9540; assay type: cell-based
Procedure: as §1, §2, §3, §5

[3] = system: Candida albicans IAM 4888; assay: MIC, two-fold agar dilution, C. albicans IAM 4888; assay type: cell-based; conditions: IAM4888, YMA pH 7.0, 28° C., 40 hours
Procedure: as §1, §2, §3, §5

[4] = system: Candida tropicalis IFO 10241; assay: MIC, two-fold agar dilution, C. tropicalis IFO 10241; assay type: cell-based; conditions: IFO10241, YMA pH 7.0, 28° C., 40 hours
Procedure: as §1, §2, §3, §5

[5] = system: Saccharomyces cerevisiae ATCC 9763; assay: MIC, two-fold agar dilution, S. cerevisiae ATCC 9763; assay type: cell-based; conditions: ATCC9763, YMA pH 7.0, 28° C., 40 hours
Procedure: as §1, §2, §3, §5

[6] = system: Cryptococcus neoformans IAM 4514; assay: MIC, two-fold agar dilution, C. neoformans IAM 4514; assay type: cell-based; conditions: IAM4514
Procedure: as §1, §2, §3, §5

Candida albicans 83-2-14 = assay: MIC, two-fold agar dilution, C. albicans 83-2-14; assay type: cell-based; conditions: 83214, YMA pH 7.0, 28° C., 40 hours
Procedure: as §1, §2, §3, §5

[7] = system: Aspergillus fumigatus IAM 2034; assay: MIC, two-fold agar dilution, A. fumigatus IAM 2034; assay type: cell-based; conditions: IAM2034
Procedure: as §1, §2, §3, §5

Candida tropicalis 85-8 = assay: MIC, two-fold agar dilution, C. tropicalis 85-8; assay type: cell-based; conditions: 858, YMA pH 7.0, 28° C., 40 hours
Procedure: as §1, §2, §3, §5

[8] = system: Cryptococcus neoformans D49; assay: MIC, two-fold agar dilution, C. neoformans D49; assay type: cell-based; conditions: YMA pH 7.0, 28° C., 40 hours
Procedure: as §1, §2, §3, §5

[9] = system: Candida albicans ATCC 32354; assay: MIC, two-fold agar dilution, C. albicans ATCC 32354; assay type: cell-based; conditions: ATCC32354, YMA pH 7.0, 28° C., 40 hours
Procedure: as §1, §2, §3, §5

Candida albicans A9540 [10] = assay: animal or person; assay type: in vivo, male ICR mice infected with Candida albicans A9540
Procedure: The in vivo therapeutic efficacies of seven 4'-N-substituted pradimicin derivatives, KHM-1, KHM-2, KHM-3, KHM-4, KHM-5, KHM-6 and KHM-7 were evaluated in the mouse infected with Candida albicans A9540 and Aspergillus fumigatusIAM 2034. Groups of five specific-pathogen-free male ICR mice weighing 20-25 g at each dose level were intravenously infected with approximately 10 times the 50% lethal dose of C. albicans A9540 (1×10^6 cells/mouse) or A. fumigatus IAM 2034 (1×10^7 cells/mouse). Immediately after the fungal infection, test compounds dissolved with 10% DMSO in distilled water were intravenously given to the mouse at the dosed volume of 0.1 ml/10 g of body weight. […] Untreated control animals died 7 to 13 days post-infection.

[11] = system: Candida albicans ATCC 38247; assay: MIC, two-fold agar dilution, C. albicans ATCC 38247; assay type: cell-based; conditions: ATCC38247, YMA pH 7.0, 28° C., 60 hours (table footnote)
Procedure: as §1, §2, §3, §4, §5

[12] = Table 3, Trichophyton mentagrophytes #4329, YMA, read-out: MIC TM-4
[13] = Trichophyton mentagrophytes #4329, YMA pH 7.0, 28° C., 60 hours, read-out: MIC
[14] = Candida albicans A9540, YMA pH 7.0, 28° C., 40 hours, read-out: MIC
[15] = Table 3, Candida albicans A9540, YMA, read-out: MIC Ca-4
[16] = Cryptococcus neoformans IAM 4514, YMA pH 7.0, 28° C., 40 hours, read-out: MIC
[17] = Table 3, Cryptococcus neoformans IAM 4514, YMA, read-out: MIC Cn-2
[18] = Aspergillus fumigatus IAM 2034, YMA pH 7.0, 28° C., 40 hours, read-out: MIC
[19] = Table 3, Aspergillus fumigatus IAM 2034, YMA, read-out: MIC Af-3

Row | MIC [1, 12] | MIC [1, 13] | MIC (Candida albicans A9540 [2]; [14]) | MIC (Candida albicans A9540 [2]; [15]) | MIC [3] | MIC [4] | MIC [5] | MIC [6, 16] | MIC [6, 17] | MIC (Candida albicans 83-2-14) | MIC [7, 18] | MIC [7, 19] | MIC (Candida tropicalis 85-8) | MIC [8] | MIC [9] | SMILES | other results
1 | 3.1 µg/mL (≈ 3.57 µM) | 3.1 µg/mL (≈ 3.57 µM) | 12.5 µg/mL (≈ 14.4 µM) | 12.5 µg/mL (≈ 14.4 µM) | 12.5 µg/mL (≈ 14.4 µM) | > 100 µg/mL | 25 µg/mL (≈ 28.8 µM) | 6.3 µg/mL (≈ 7.25 µM) | 6.3 µg/mL (≈ 7.25 µM) | > 100 µg/mL | 3.1 µg/mL (≈ 3.57 µM) | 3.1 µg/mL (≈ 3.57 µM) | > 100 µg/mL | 6.3 µg/mL (≈ 7.25 µM) | 12.5 µg/mL (≈ 14.4 µM) | COc1cc(O)c2c(c1)C(=O)c1c(cc3c(c1O)-c1c(cc(C)c(C(=O)N[C@H](C)C(=O)O)c1O)[C@H](O[C@@H]1O[C@H](C)[C@H](NC(=N)N)[C@H](O[C@@H]4OC[C@@H](O)[C@H](O)[C@H]4O)[C@H]1O)[C@H]3O)C2=O [KHM-8, 4'-Guanidinopradimicin C] | –
2 | 3.1 µg/mL (≈ 3.63 µM) | 3.1 µg/mL (≈ 3.63 µM) | 12.5 µg/mL (≈ 14.6 µM) | 12.5 µg/mL (≈ 14.6 µM) | 6.3 µg/mL (≈ 7.38 µM) | > 100 µg/mL | 1.6 µg/mL (≈ 1.87 µM) | 3.1 µg/mL (≈ 3.63 µM) | 3.1 µg/mL (≈ 3.63 µM) | 12.5 µg/mL (≈ 14.6 µM) | 1.6 µg/mL (≈ 1.87 µM) | 1.6 µg/mL (≈ 1.87 µM) | 50 µg/mL (≈ 58.6 µM) | 12.5 µg/mL (≈ 14.6 µM) | 6.3 µg/mL (≈ 7.38 µM) | COc1cc(O)c2c(c1)C(=O)c1c(cc3c(c1O)-c1c(cc(C)c(C(=O)N[C@H](C)C(=O)O)c1O)[C@H](O[C@@H]1O[C@H](C)[C@H](NC=N)[C@H](O[C@@H]4OC[C@@H](O)[C@H](O)[C@H]4O)[C@H]1O)[C@H]3O)C2=O [KHM-9, 4'-Amidinopradimicin C] | –

Row | SMILES | MIC [1, 12] | MIC [1, 13] | MIC (Candida albicans A9540 [2]; [14]) | MIC (Candida albicans A9540 [2]; [15]) | MIC [3] | MIC [4] | MIC [5] | MIC [6, 16] | MIC [6, 17] | MIC (Candida albicans 83-2-14) | MIC [7, 18] | MIC [7, 19] | MIC (Candida tropicalis 85-8) | MIC [8] | MIC [9] | other results
3 | COc1cc(O)c2c(c1)C(=O)c1c(cc3c(c1O)-c1c(cc(C)c(C(=O)N[C@H](C)C(=O)O)c1O)[C@H](O[C@@H]1O[C@H](C)[C@H](N)[C@H](O[C@@H]4OC[C@@H](O)[C@H](O)[C@H]4O)[C@H]1O)[C@H]3O)C2=O [Pradimicin C] | 3.1 µg/mL (≈ 3.75 µM) | 3.1 µg/mL (≈ 3.75 µM) | 25 µg/mL (≈ 30.2 µM) | 25 µg/mL (≈ 30.2 µM) | – | 100 µg/mL (≈ 121 µM) | 6.3 µg/mL (≈ 7.62 µM) | 0.8 µg/mL (≈ 0.968 µM) | 0.8 µg/mL (≈ 0.968 µM) | 50 µg/mL (≈ 60.5 µM) | 3.1 µg/mL (≈ 3.75 µM) | 3.1 µg/mL (≈ 3.75 µM) | 100 µg/mL (≈ 121 µM) | 0.8 µg/mL (≈ 0.968 µM) | 6.3 µg/mL (≈ 7.62 µM) | ED50 (Candida albicans A9540 [10]; 480 h, Table 3, Candida albicans A9540, iv, read-out: PD50 (mice) Ca-4): 14 mg/kg; responders at 6.3 mg/kg (Candida albicans A9540 [10]; Candida albicans, A9540, 480 h, C. albicans, mice, 6.3 mg/kg iv, 20th day post-infection, read-out: S/T (No. of survivors/tested) (converted)): 40%; responders at 12.5 mg/kg (Candida albicans A9540 [10]; Candida albicans, A9540, 480 h, C. albicans, mice, 12.5 mg/kg iv, 20th day post-infection, read-out: S/T (No. of survivors/tested) (converted)): 40%; responders at 25 mg/kg (Candida albicans A9540 [10]; Candida albicans, A9540, 480 h, C. albicans, mice, 25 mg/kg iv, 20th day post-infection, read-out: S/T (No. of survivors/tested) (converted)): 100%; responders at 50 mg/kg (Candida albicans A9540 [10]; Candida albicans, A9540, 480 h, C. albicans, mice, 50 mg/kg iv, 20th day post-infection, read-out: S/T (No. of survivors/tested) (converted)): 0%; ED50 (Candida albicans A9540 [10]; Candida albicans, A9540, 480 h, Table 2, C. albicans, mice, iv, 95% confidence limits in parentheses, read-out: PD50 (50% protection dose)): 13 mg/kg; MIC [11]: 3.1 µg/mL (≈ 3.75 µM)
